# In ChEMBL document CHEMBL1139171, “Synthesis and antifungal activity of 6-arylamino-phthalazine-5,8-diones and 6,7-bis(arylthio)-phthalazine-5,8-diones” (2007):
# Key:
# Format in all cases: functional
# [1] = tested on: Candida albicans; test: Antifungal activity against Candida albicans Berkout KCCM 50235 after 1 day by broth dilution method; details: KCCM 50235, 24 h
# [2] = tested on: Aspergillus niger; test: Antifungal activity against Aspergillus niger KCTC 1231 after 2 days by broth dilution method; details: Aspergillus niger, KCTC 1231, 48 h; read-out: MIC
# [3] = tested on: Candida tropicalis; test: Antifungal activity against Candida tropicalis Berkout KCCM 50662 after 1 day by broth dilution method; details: Candida tropicalis, KCCM 50662, 24 h; read-out: MIC
# [4] = tested on: Aspergillus flavus; test: Antifungal activity against Aspergillus flavus KCCM 11899 after 2 days by broth dilution method; details: Aspergillus flavus, KCCM 11899, 48 h; read-out: MIC
# [5] = tested on: Pichia kudriavzevii; test: Antifungal activity against Candida krusei Berkout KCCM 11655 after 1 day by broth dilution method; details: KCCM 11655, 24 h
# [6] = tested on: Cryptococcus neoformans; test: Antifungal activity against Cryptococcus neoformans KCCM 50564 after 1 day by broth dilution method; details: KCCM 50564, 24 h
Compound,MIC [1] [mg/L],MIC [2] [mg/L],MIC [3] [mg/L],MIC [4] [mg/L],MIC [5] [mg/L],MIC [6] [mg/L]
O=C1C(Cl)=C(Nc2ccccc2)C(=O)c2cnncc21,50,100,25,25,25,3.2
O=C1C(Cl)=C(Nc2ccc(F)cc2)C(=O)c2cnncc21,50,> 100,50,> 100,50,6.3
O=C1C(Cl)=C(Nc2ccc(Cl)cc2)C(=O)c2cnncc21,12.5,> 100,12.5,> 100,6.3,100
O=C1C(Sc2ccc(F)c(F)c2)=C(Sc2ccc(F)c(F)c2)C(=O)c2cnncc21,3.2,3.2,12.5,25,> 100,100
O=C1C(Sc2ccc(F)cc2)=C(Sc2ccc(F)cc2)C(=O)c2cnncc21,6.3,12.5,6.3,> 100,100,> 100
COc1ccc(SC2=C(Sc3ccc(OC)cc3)C(=O)c3cnncc3C2=O)cc1,25,12.5,100,> 100,100,> 100
O=C1C(Cl)=C(Nc2ccc(I)cc2)C(=O)c2cnncc21,12.5,> 100,12.5,50,12.5,100
Nc1cccc2cnncc12,> 100,> 100,> 100,100,100,25
O=C1C=C(Nc2ccc(Br)cc2)C(=O)c2cnncc21,12.5,50,3.2,50,12.5,12.5
O=C1C(Sc2ccc(Br)cc2)=C(Sc2ccc(Br)cc2)C(=O)c2cnncc21,50,> 100,50,50,> 100,> 100
O=C1C(Cl)=C(Nc2ccc(F)c(F)c2)C(=O)c2cnncc21,25,100,3.2,100,> 100,50
O=C1C(Cl)=C(Nc2cccc(C(F)(F)F)c2)C(=O)c2cnncc21,25,50,12.5,50,100,50
